Some test systems named below: A549 NSCLC; U251 CNS; MOLT-4 leukemia; SK-OV-3 ovarian; KM12 colon; NCI-H23 lung; SW-620 colon; SK-MEL-5 melanoma; CCRF-CEM leukemia; OVCAR-8 ovarian; NCI-H522 lung; SNB-19 CNS; SF-268 CNS.
What all share (assay): NCI tumour cell line growth inhibition, 48 h

Our source for the TGI and GI50 values is PubChem BioAssay (NCI).

Where “and” joins values, the source holds several entries; their conditions need not be identical. Equal values may be shown once.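 Exposure lasted 48 hours, with cells grown in 96-well plates and compounds tested at five concentrations. GI50 = concentration required for 50% inhibition of growth. The concentration for full growth arrest is given as TGI.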 Where a SMILES comes first, the peptide text is derived from it.

For `O=C1C(Cl)C(c2ccccc2)N1n1cnc2ccccc2c1=O` (stereo not drawn), the TGI in the assay with A549 NSCLC, in the assay on U251 CNS, in the assay on MOLT-4 leukemia, with SK-OV-3 ovarian, in the assay on KM12 colon and with NCI-H23 lung was above 100 µM throughout. In addition, the TGI in the assay with SW-620 colon, in the assay with SK-MEL-5 melanoma, in the assay with CCRF-CEM leukemia, in the assay with OVCAR-8 ovarian, in the assay with NCI-H522 lung and with SNB-19 CNS was above 100 µM in each case. Also, in the assay on SF-268 CNS, the TGI is above 100 µM.

Take `C/C(=C1/CCCC2(N=NCC2c2ccccc2)C1=O)c1ccccc1` (stereo not drawn): the TGI is 92.6 µM with A549 NSCLC; 72 µM in the assay with U251 CNS; 48.1 µM in the assay with MOLT-4 leukemia; above 100 µM in the assay on SK-OV-3 ovarian; 31.3 µM in the assay on KM12 colon; 67.5 µM in the assay on NCI-H23 lung. Besides, the TGI was above 100 µM with SW-620 colon; 25.3 µM in the assay on SK-MEL-5 melanoma; 66.1 µM with CCRF-CEM leukemia; 64.2 µM in the assay on OVCAR-8 ovarian; 59.6 µM in the assay on NCI-H522 lung; above 100 µM with SNB-19 CNS. For the same molecule, the TGI in the assay on SF-268 CNS is above 100 µM.

In the case of `Cc1ccc2nc(-c3ccc(N)c(I)c3)sc2c1`, the TGI was 58.7 µM in the assay on A549 NSCLC; 98.6 µM in the assay on U251 CNS; above 100 µM in the assay on MOLT-4 leukemia; above 100 µM with SK-OV-3 ovarian; 56.1 µM with KM12 colon; 57.8 µM in the assay with SW-620 colon. For the same molecule, the TGI in the assay with SK-MEL-5 melanoma was above 100 µM; in the assay with CCRF-CEM leukemia, 88.8 µM; in the assay with OVCAR-8 ovarian it was above 100 µM; in the assay on NCI-H522 lung, 39.2 µM; in the assay with SNB-19 CNS, 86.4 µM; with SF-268 CNS, 88.7 µM.

Consider `OCC1OC(n2cnc3c2NC=NC[C@H]3O)C(O)C1O` (stereo partly drawn), for which the TGI with A549 NSCLC, in the assay with U251 CNS, in the assay on MOLT-4 leukemia, with SK-OV-3 ovarian, in the assay on KM12 colon and with NCI-H23 lung was above 450 µM each time. In addition, the TGI in the assay on SW-620 colon is above 450 µM; in the assay on SK-MEL-5 melanoma it was above 71.3 µM; in the assay with CCRF-CEM leukemia, above 284 µM; with OVCAR-8 ovarian, above 450 µM; in the assay on NCI-H522 lung, above 450 µM; with SNB-19 CNS, above 450 µM. Moreover, the TGI in the assay on SF-268 CNS is above 450 µM.

On to `NC(CCC(=O)NC(CSC(=O)N(O)c1ccc(Br)cc1)C(=O)NCC(=O)O)C(=O)O` (stereo not drawn), for which the TGI with A549 NSCLC, with U251 CNS, in the assay with MOLT-4 leukemia, in the assay on SK-OV-3 ovarian, with KM12 colon and with NCI-H23 lung was above 100 µM each time. Moreover, the TGI in the assay on SW-620 colon, in the assay on SK-MEL-5 melanoma, in the assay with CCRF-CEM leukemia, in the assay on OVCAR-8 ovarian, in the assay with NCI-H522 lung and in the assay on SNB-19 CNS was above 100 µM in each case. Moreover, in the assay on SF-268 CNS, the TGI was above 100 µM. For the same molecule, in the assay on KM12 colon, the GI50 is > 100 µM and 45 µM.

In the case of `CCOC(=O)C(N=Nc1ccc(S(N)(=O)=O)cc1)C(C)=O` (stereo not drawn), the TGI in the assay with A549 NSCLC, with U251 CNS, with MOLT-4 leukemia, with SK-OV-3 ovarian, in the assay on KM12 colon and in the assay with NCI-H23 lung was above 100 µM in each case. In addition, the TGI with SW-620 colon, with SK-MEL-5 melanoma, in the assay on CCRF-CEM leukemia, in the assay on OVCAR-8 ovarian, with NCI-H522 lung and in the assay on SNB-19 CNS was above 100 µM throughout. Also, the TGI in the assay with SF-268 CNS is above 100 µM.

`CCC(C)C(NC(=O)C(CCCCN)NC(=O)C(NC(=O)C(CCC(N)=O)NC(=O)C(N)CCCNC(=N)N)C(C)CC)C(=O)NC(Cc1c[nH]c2ccccc12)C(=O)NC(Cc1ccccc1)C(=O)NC(CCC(N)=O)C(=O)NC(CC(N)=O)C(=O)NC(CCCNC(=N)N)C(=O)NC(CCCNC(=N)N)C(=O)NC(CCSC)C(=O)NC(CCCCN)C(=O)NC(Cc1c[nH]c2ccccc12)C(=O)NC(CCCCN)C(=O)NC(CCCCN)C(=O)N1CCCC1C(=O)NC(C)C(=O)NC(CCCCN)C(=O)NC(CCCNC(=N)N)C(=O)NC(CCCCN)C(=O)NC(CC(C)C)C(=O)NC(Cc1ccccc1)C(=O)NCC(=O)O` (stereo not drawn) (H-RQIKIWFQNRRMKWKKPAKRKLFG-OH; configuration not given here): the TGI in the assay with A549 NSCLC, in the assay with U251 CNS, with MOLT-4 leukemia, with SK-OV-3 ovarian, in the assay with KM12 colon and in the assay with NCI-H23 lung was above 25 µM in each case. In addition, the TGI in the assay on SW-620 colon, in the assay with SK-MEL-5 melanoma, in the assay on CCRF-CEM leukemia, with OVCAR-8 ovarian, in the assay on NCI-H522 lung and in the assay on SNB-19 CNS was above 25 µM each time. For the same molecule, the TGI with SF-268 CNS was above 25 µM.

For `COC(=O)C12C3C4C5(C(=O)OC)C(C1C35C(=O)N(C(C)C)C(C)C)C42C(=O)N(C(C)C)C(C)C` (stereo not drawn), the TGI with A549 NSCLC, in the assay with U251 CNS, with MOLT-4 leukemia, with SK-OV-3 ovarian, in the assay on KM12 colon and with NCI-H23 lung was above 50 µM in each case. The TGI with SW-620 colon was above 43.6 µM; in the assay on SK-MEL-5 melanoma it was above 50 µM; in the assay on CCRF-CEM leukemia, above 50 µM; with OVCAR-8 ovarian, above 50 µM; in the assay on NCI-H522 lung, above 50 µM; in the assay on SNB-19 CNS it was above 50 µM. In addition, the TGI in the assay on SF-268 CNS is above 50 µM.

For `COc1ccc2c(c1)CC[C@@H]1[C@@H]2CC[C@]2(C)C(=O)/C(=C/c3ccc(OC)c(OC)c3)C[C@@H]12`, the TGI in the assay on A549 NSCLC, with U251 CNS, in the assay on MOLT-4 leukemia, in the assay on SK-OV-3 ovarian, in the assay on KM12 colon and with NCI-H23 lung was above 100 µM throughout. For the same molecule, the TGI in the assay with SW-620 colon, in the assay with SK-MEL-5 melanoma and in the assay on SNB-19 CNS was above 100 µM throughout.

Consider `N#Cc1c(-c2ccccc2)[nH]c2ccccc2c1=O`, for which the TGI in the assay with A549 NSCLC, in the assay with MOLT-4 leukemia, in the assay with SK-OV-3 ovarian, in the assay on KM12 colon, in the assay on SW-620 colon and with SK-MEL-5 melanoma was above 100 µM in each case. The TGI in the assay on CCRF-CEM leukemia is above 100 µM; in the assay on OVCAR-8 ovarian it was above 100 µM; in the assay on SNB-19 CNS, 74.9 µM; in the assay on SF-268 CNS it was above 100 µM.
